The text below walks through data of US20260083864A1, “CONTRAST AGENTS FOR USE IN DIAGNOSTIC COMPUTED TOMOGRAPHY IMAGING” (Bayer Aktiengesellschaft, priority 2022, published 2026).

What is called Solubility is the concentration that dissolves in the medium under given conditions. A lower Solubility goes with a poorly soluble substance.

One series concerns the target T1, OATP1B3 (Homo sapiens, UniProt Q9NPD5).
T1 sequence (Q9NPD5 1-702): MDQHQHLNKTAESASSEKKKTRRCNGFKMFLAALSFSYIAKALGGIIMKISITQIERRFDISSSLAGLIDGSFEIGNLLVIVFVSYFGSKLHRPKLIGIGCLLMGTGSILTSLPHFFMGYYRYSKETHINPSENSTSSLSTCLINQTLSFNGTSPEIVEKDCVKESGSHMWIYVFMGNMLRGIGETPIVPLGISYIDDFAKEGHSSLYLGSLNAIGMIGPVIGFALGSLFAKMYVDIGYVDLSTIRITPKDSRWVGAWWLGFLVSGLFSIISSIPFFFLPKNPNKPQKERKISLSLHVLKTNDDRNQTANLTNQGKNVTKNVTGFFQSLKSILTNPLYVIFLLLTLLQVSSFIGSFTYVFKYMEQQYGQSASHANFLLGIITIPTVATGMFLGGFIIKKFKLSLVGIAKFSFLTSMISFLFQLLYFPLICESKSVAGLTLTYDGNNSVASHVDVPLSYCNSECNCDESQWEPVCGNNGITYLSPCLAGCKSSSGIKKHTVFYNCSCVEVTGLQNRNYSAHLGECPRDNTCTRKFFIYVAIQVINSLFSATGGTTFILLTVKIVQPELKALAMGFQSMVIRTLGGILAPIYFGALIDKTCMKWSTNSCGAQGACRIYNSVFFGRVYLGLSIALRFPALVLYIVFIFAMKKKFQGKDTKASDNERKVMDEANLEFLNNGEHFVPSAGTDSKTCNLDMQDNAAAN
Briefly: Uptake into stable transfected OATP1B3 HEK 293 cells. Type of series: cell-based. As to conditions: for Uptake into OATP1B3-HEK 293 cells: 40 min incubation, relative to RC1 (Gd-EOB-DTPA); for Inhibition Rifampicine: uptake into OATP1B3-HEK 293 cells. How it is done:
(§1) Cryopreserved cells were shortly thawed in water bath and diluted in 10 mL warm culture medium (37° C.). After medium change the cells were grown for 3d in a 25 cm^2 cell culture flask. After 3 to 5d the cells were transferred into 75 cm^2 flasks. […] All test items were prepared in transport buffer at a final concentration of 100 µM from stock solutions (180 to 500 mM concentration). The OATP1B3 HEK 293 cells were incubated with test solutions (test item in transport buffer 500 μL) for 40 min on a thermoshaker without shaking (PHMP, Fa. Grant Bio). Triplicates were performed for each test item. After incubation the cells were washed with 2 mL of cold PBS (+) buffer (Dulbeccos PBS+, Fa. Gibco). […] As a reference standard Gd-EOB-DTPA (gadoxetate) is used in the same well plate.

For series [1], the system named is freshly isolated rat hepatocytes. The series can be described thus: Uptake into freshly isolated rat hepatocytes. The settings on record: for Uptake rat hepatocytes: 100 μmol Gd/L, 10 min, 37° C., relative to RC1 (Gd-EOB-DTPA); for Inhibition Rifampicine: rat hepatocyte uptake, test item and Rifampicine 1:1, each 100 μM.
Series [2] is described as follows: Water solubility in aqueous buffer. How it is done:
The solid compounds were added stepwise to the buffer solution. More substance is added once all the suspended material is dissolved until an equilibrium between undissolved and dissolved substance is reached. The suspension was mixed using a shaker (Heidolph Reax 2000) and treated 5 min in an ultrasound bath (Bandelin, Sonorex Super RK255H).

A short description of series [3]: Partition coefficient (log P butanol/buffer). The series is classed as physicochemical.
A short description of series [4]: Relaxivity measurements at 1.41 T in human plasma. The series is classed as physicochemical. As to conditions: 37° C., normalized to Gd. The procedure:
The T1 relaxation times were determined using the standard inversion recovery (IR) method with a fixed relaxation delay of at least 5×T1. The variable inversion time (TI) was calculated automatically by the standard software of the MiniSpec mq60 (8 steps). The T2 measurements were performed by using a Carr-Purcell-Meiboom-Gill (CPMG) pulse sequence, applying a relaxation delay of at least 5×T1.
Each relaxivity measurement was performed using three different Gd concentrations (3 concentrations between 0.05 and 2 mM).
(§2) The relaxivities n (where i=1, 2) were calculated based on the measured relaxation rates Ri in water and plasma: […]

Another series has as its target T2, OATP1B1 (Homo sapiens, UniProt Q9Y6L6).
T2 sequence (Q9Y6L6 1-691): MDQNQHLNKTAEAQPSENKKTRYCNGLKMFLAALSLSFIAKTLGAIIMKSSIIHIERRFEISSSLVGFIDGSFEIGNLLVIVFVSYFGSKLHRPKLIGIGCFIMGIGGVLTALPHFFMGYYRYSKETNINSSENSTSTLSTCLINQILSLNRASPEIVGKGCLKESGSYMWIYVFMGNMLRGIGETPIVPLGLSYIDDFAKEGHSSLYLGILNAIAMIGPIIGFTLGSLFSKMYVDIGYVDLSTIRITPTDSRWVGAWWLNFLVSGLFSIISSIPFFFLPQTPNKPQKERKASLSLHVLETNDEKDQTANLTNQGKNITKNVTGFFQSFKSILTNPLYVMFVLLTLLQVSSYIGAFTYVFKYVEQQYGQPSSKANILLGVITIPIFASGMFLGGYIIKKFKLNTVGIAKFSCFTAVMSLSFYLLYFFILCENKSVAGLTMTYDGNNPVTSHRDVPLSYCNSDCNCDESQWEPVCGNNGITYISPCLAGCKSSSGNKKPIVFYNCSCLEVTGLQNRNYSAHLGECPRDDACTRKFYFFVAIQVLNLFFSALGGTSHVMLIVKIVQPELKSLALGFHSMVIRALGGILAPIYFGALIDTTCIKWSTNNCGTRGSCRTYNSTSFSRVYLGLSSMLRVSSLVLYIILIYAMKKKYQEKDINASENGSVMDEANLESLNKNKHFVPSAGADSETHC
The series can be described thus: Uptake into stable transfected OATP1B1 HEK 293 cells. The series is classed as cell-based. The settings on record: for Uptake into OATP1B1-HEK 293 cells: 40 min incubation, relative to RC1 (Gd-EOB-DTPA); for Inhibition Rifampicine: uptake into OATP1B1-HEK 293 cells. The procedure:
as §1, with “M” for “µM”, “OATP1B1” for “OATP1B3”, “L)” for “μL)”

A short description of series [5]: Relaxivity measurements at 1.41 T in water. The settings on record: 37° C., normalized to Gd. Type of series: physicochemical. How it is done:
Relaxivity measurements at 1.41 T were performed using a MiniSpec mq60 spectrometer (Bruker Analytik, Karlsruhe, Germany) operating at a resonance frequency of 60 MHz and a temperature of 37° C. The T1 relaxation times were determined using the standard inversion recovery (IR) method with a fixed relaxation delay of at least 5×T1. The variable inversion time (TI) was calculated automatically by the standard software of the MiniSpec mq60 (8 steps). The T2 measurements were performed by using a Carr-Purcell-Meiboom-Gill (CPMG) pulse sequence, applying a relaxation delay of at least 5×T1.
Each relaxivity measurement was performed using three different Gd concentrations (3 concentrations between 0.05 and 2 mM). […] Human plasma preparation: For each experiment fresh blood was taken from a volunteer using 10 mL citrate-tubes (Sarstedt S-Monovette 02.1067.001, 10 mL, Citrate). The 10 mL citrate-tubes were carefully inverted 10 times to mix blood and anticoagulant and centrifuged for 15 min at 1811 g at RT (Eppendorf, Centrifuge 5810R).
as §2

[6] abbreviates: aqueous buffer 10 mM Tris-HCl, pH 7.4, 20° C.
Where [7] appears, read: 1-butanol / 50 mM Tris-HCl, pH 7.4, room temperature.

Regarding `CCOCCOCCOCCOc1ccc(CC(C(=O)O)N2CCN(CC(=O)[O-])CCN(CC(=O)[O-])CCN(CC(=O)[O-])CC2)cc1.[Gd+3]` (centres unmarked) [Example 10, gadolinium 2,2′,2″-{10-[1-carboxy-2-(4-{2-[2-(2-ethoxyethoxy)ethoxy]ethoxy}phenyl)ethyl]-1,4,7,10-tetraazacyclododecane-1,4,7-triyl}triacetate], on OATP1B3, the “Uptake into OATP1B3-HEK 293 cells” value is listed as 13 % of RC1 and the “Inhibition Rifampicine” value is recorded as 95 % inhibition. Also, in series [1], the Uptake rat hepatocytes is on record as 49 % of RC1 and the “Inhibition Rifampicine” value amounted to 90 % inhibition. In series [2] (setting [6]), the Solubility is greater than 272 mM. The “Log P (partition coefficient butanol/buffer)” value in series [3] (setting [7]) is −1.70. The r1 human plasma in series [4] is 6.6 L/mmol/s. On OATP1B1, the “Uptake into OATP1B1-HEK 293 cells” value is reported as 87 % of RC1 and the “Inhibition Rifampicine” value came to 43 % inhibition. Besides, the r1 water in series [5] came to 4.5 L/mmol/s.

`CCOCCOCCOc1ccc(CCC[C@@H](C(=O)O)N2CCN(C(CCO)C(=O)[O-])CCN(C(CCO)C(=O)[O-])CCN(C(CCO)C(=O)[O-])CC2)cc1.[Gd+3]` (mixture of isomers) [Example 36, gadolinium-2,2′-{4-[(1S)-1-carboxy-4-{4-[2-(2-ethoxyethoxy)ethoxy]phenyl}butyl]-10-[1-carboxylato-3-hydroxypropyl]-1,4,7,10-tetraazacyclododecane-1,7-diyl}bis(4-hydroxybutanoate)]: in series [2] (pH 7.4), the Solubility amounted to 85 mM. Also, the “Log P (partition coefficient butanol/buffer)” value in series [3] (pH 7.4) is −1.08. Also, the r1 human plasma in series [4] was determined as 8.5 L/mmol/s. The same compound showed a r1 water in series [5] of 6.1 L/mmol/s.

In the case of `CCOCCOCCOc1ccc(CC(C(=O)O)N2CCN(CC(=O)[O-])CCN(C(C)C(=O)[O-])CCN(CC(=O)[O-])CC2)cc1.[Gd+3]` (single isomer, unassigned) [Example 5, gadolinium 2-[7-(1-carboxy-2-{4-[2-(2-ethoxyethoxy)ethoxy]phenyl}ethyl)-4,10-bis(carboxylatomethyl)-1,4,7,10-tetraazacyclododecan-1-yl]propanoate], in series [1], the Uptake rat hepatocytes is on record as 28 % of RC1 and the “Inhibition Rifampicine” value stood at 92 % inhibition. For the same compound, the Solubility in series [2] (setting [6]) is greater than 59 mM. Also, the “Log P (partition coefficient butanol/buffer)” value in series [3] (setting [7]) is −1.52. Also, the r1 human plasma in series [4] was found to be 6.9 L/mmol/s. Further, the r1 water in series [5] was 4.7 L/mmol/s.

With `CCOCCOCCOc1ccc(CCC[C@@H](C(=O)O)N2CCN([C@@H](CO)C(=O)[O-])CCN([C@H](CO)C(=O)[O-])CCN([C@@H](CO)C(=O)[O-])CC2)cc1.[Gd+3]` [Example 35, gadolinium (2S,2'S)-2,2′-{4-[(1S)-1-carboxy-4-{4-[2-(2-ethoxyethoxy)ethoxy]phenyl}butyl]-10-[(1R)-1-carboxylato-2-hydroxyethyl]-1,4,7,10-tetraazacyclododecane-1,7-diyl}bis(3-hydroxypropanoate)], the “Inhibition Rifampicine” value was found to be 98 % inhibition at OATP1B3 and 87 % inhibition at OATP1B1. In series [2] (setting [6]), this compound displayed a Solubility greater than 164 mM. Further, in series [3] (setting [7]), the “Log P (partition coefficient butanol/buffer)” value was −1.02. Further, in series [4], the r1 human plasma was 8.6 L/mmol/s. The r1 water in series [5] is 5.6 L/mmol/s.

On to `CCOCCOCCOc1ccc(CC(C(=O)O)N2CCN(C(CCO)C(=O)[O-])CCN(C(CCO)C(=O)[O-])CCN(C(CCO)C(=O)[O-])CC2)cc1.[Gd+3]` (centres unmarked) [Example 37, gadolinium-2,2′-{4-[1-carboxy-2-{4-[2-(2-ethoxyethoxy)ethoxy]phenyl}ethyl]-10-[1-carboxylato-3-hydroxypropyl]-1,4,7,10-tetraazacyclododecane-1,7-diyl}bis(4-hydroxybutanoate)], for which, in series [1], the Uptake rat hepatocytes is listed as 26 % of RC1 and the “Inhibition Rifampicine” value turned out to be 37 % inhibition. In series [2] (setting [6]), this compound showed a Solubility of 18 mM. Further, in series [3] (setting [7]), the “Log P (partition coefficient butanol/buffer)” value is listed as −1.16. Besides, the r1 human plasma in series [4] came out at 8.4 L/mmol/s. The same compound came in with a r1 water in series [5] of 6.4 L/mmol/s.

Consider `CCOCCOCCOCCOc1ccc(C[C@H](C(=O)O)N2CCN(CC(=O)[O-])CCN(CC(=O)[O-])CCN(CC(=O)[O-])CC2)cc1.[Gd+3]` [Example 12, gadolinium 2,2′,2″-{10-[(1R)-1-carboxy-2-(4-{2-[2-(2-ethoxyethoxy)ethoxy]ethoxy}phenyl)ethyl]-1,4,7,10-tetraazacyclododecane-1,4,7-triyl}triacetate], for which, at OATP1B3, the “Uptake into OATP1B3-HEK 293 cells” value is 24 % of RC1 and the “Inhibition Rifampicine” value is 87 % inhibition. In addition, in series [1], the Uptake rat hepatocytes was 53 % of RC1 and the “Inhibition Rifampicine” value is 97 % inhibition. For the same compound, the “Log P (partition coefficient butanol/buffer)” value in series [3] (setting [7]) is reported as −1.68. The same compound yielded a r1 human plasma in series [4] of 6.6 L/mmol/s. At OATP1B1, the “Uptake into OATP1B1-HEK 293 cells” value was 86 % of RC1 and the “Inhibition Rifampicine” value amounted to 0 % inhibition. Also, the r1 water in series [5] amounted to 4.3 L/mmol/s.
